Data set [1] has as its system human lung cancer NCI-H1975 subcutaneous xenograft tumor. The data set can be described thus: NCI-H1975 subcutaneous xenograft tumor BALB/c nude mouse model. In kind it is in vivo, BALB/c nude mice. Here is the method:
Human lung cancer NCI-H1975 cells were cultured in vitro in a monolayer under the conditions of 1640 medium with 10% fetal bovine serum, 1% double antibodies and incubated at 37° C. in a 5% CO2 incubator. Routine treatment passages were performed twice a week. When the cell saturation was 80%-90% and the number reached the required level, the cells were collected, counted, and inoculated.
BALB/c nude mice, female, 6-8 weeks old, weighing 18-22 g. Provided by Shanghai Xipuer-Bikai Laboratory Animal Co., Ltd. or other qualified suppliers.
Tumor tissue was collected from H1975 tumor-bearing mice of human lung cancer xenograft model, cut into 2-3 mm diameter tumor blocks and inoculated subcutaneously at the right anterior scapula of Balb/c nude mice. When the average tumor volume was 145 mm^3, the tumors were randomly grouped according to their size, and the day of grouping was defined as day 0.
The experimental index was to examine whether tumor growth was inhibited, delayed or cured. Tumor diameters were measured with vernier calipers twice a week. The calculation formula of tumor volume was: V=0.5a×b^2, wherein a and b represented the long and short diameters of the tumor, respectively. The antitumor efficacy of the compounds was evaluated by TGI (%) or relative tumor proliferation rate T/C (%). TGI (%), reflecting the tumor growth inhibition rate. Calculation of TGI (%): TGI (%)=[(1−(average tumor volume at the end of administration of a treatment group−average tumor volume at the beginning of administration of this treatment group))/(average tumor volume at the end of treatment in the solvent control group−average tumor volume at the beginning of treatment of the solvent control group)]×100%. Relative tumor proliferation rate T/C (%): The calculation formula was as follows: T/C %=TRTV/CRTV×100% (TRTV: RTV in the treatment group; CRTV: RTV in the negative control group). The relative tumor volume (RTV) was calculated according to the results of tumor measurement, and the formula was RTV=Vt/V0, wherein V0 was the average tumor volume measured at the time of group administration (i.e., d0), and Vt was the average tumor volume at a certain measurement, TRTV and CRTV were taken on the same day. After the experiment, the tumor weight will be detected, and the percentage of T/Cweight will be calculated. Tweight and Cweight represented the tumor weight of the administration group and the solvent control group, respectively.

Data set [2] has as its system LU0387 EGFR-H773_V774insNPH cells. The data set can be described thus: Anti-proliferation activity test of LU-0387 cells. It is filed as cell-based. To be noted: Homo sapiens, 96 h, CTG, 4 days, read-out: Cell IC50 (anti-proliferation). Here is the method: (1) Anti-Proliferation Activity Test of LU-0387 (EGFR Exon 20 NPH Insertion Mutation) Cells
Fetal bovine serum FBS, CellTiter Glo® luminescent cell activity assay, 96-well clear flat-bottomed black-walled plate
A cell counter was used for cell counting, and cell viability was detected to ensure that the viability of each cell line was above 90%. Cell suspension was added to a 96-well plate to bring the cell density to the specified concentration and incubated overnight at 37° C., 5% CO2 and 95% humidity. The culture medium was added to the T0 plate, the CTG reagent was melted and the cell plate was equilibrated at room temperature. CTG solution was added to each well. The cell plate was vibrated to lyse the cells and the cold light values were read. The compound to be test and the control drug were diluted in a gradient to obtain a 10-fold solution. 10 μL of drug solution was added to each well of a 96-well plate that had been inoculated with cells. The incubation was continued at 37° C., 5% CO2, 95% humidity for 4 days, and CTG analysis was performed and cold light values were read separately. The data were analyzed using GraphPad Prism 5.0 software and IC50 values were calculated.
The IC50 data of the compounds of the present disclosure against EGFR exon 20 insertion mutation NPH in LU-0387 cells are shown in Table 4.

Data set [3] can be described thus: Pharmacokinetic study, single intravenous and oral administration in Beagle dogs. To be noted: dog, plasma; for AUC(0-t): read-out: Exposure of AUC0-last. It is filed as in vivo. Here is the method: The purpose of this experiment was to investigate the pharmacokinetics (PK) of the compounds in different species after single intravenous and single oral administration of the test compounds.
After intravenous or oral administration, blood samples were collected from the animals, and the actual time of blood collection was recorded. After the blood samples were collected, the samples were immediately transferred to the labelled centrifuge tube containing K2-EDTA, and then centrifuged to obtain plasma. Plasma was transferred to pre-cooled centrifuge tubes, quick-frozen in dry ice and stored in an ultra-low temperature refrigerator at −70±10° C. until LC-MS/MS analysis was performed.
The plasma drug concentration data of the compounds were processed using pharmacokinetic software with a non-compartmental model. The peak concentration (Cmax) and time to peak (Tmax), as well as the quantifiable end time were obtained directly from the plasma concentration-time curve. The following pharmacokinetic parameters were calculated using the log-linear trapezoidal method: half-life (T1/2), apparent volume of distribution (Vdss), and clearance (Cl), area under the time-plasma concentration curve from point 0 to the end time point (AUC0-last), and initial concentration (C0).

Where two headings read alike, the source gives them in different places.

By T/C is commonly meant the result in the treated group divided by that in the control group, in per cent. Usually half-life stands for how long it takes for the measured level to halve. A lower half-life goes with fast loss. By AUC is commonly meant the area under the concentration-time curve, a measure of exposure. As a reminder, the bioavailability is dose-corrected exposure relative to a reference, in per cent. Read a high bioavailability as good availability. As to `C=CC(=O)Nc1cc(Nc2ncc(C(=O)OC(C)C)c(-c3cn(OC)c4ccccc34)n2)c(OC)cc1N(C)CCN(C)C.CS(=O)(=O)O` [Compound 1], the “Tumor volume (Day 0)” value in data set [1] (Day 0 (grouping), mean ± standard error, n = 6) stood at 153 ± 7 mm^3. For the same compound, in data set [1] (Day 20), the RTV is 0.20 ± 0.10, the T/C turned out to be 1.35% and the TGI came to 105.3%. In data set [1] (Day 20, mean ± standard error, n = 6), the “Tumor volume (Day 20)” value came to 33 ± 16 mm^3. Further, in data set [2], the IC50 stood at 25.6 nM. Further, in data set [3] (intravenous injection 2 mg/kg), the clearance turned out to be 12.7 mL/min/kg and the half-life was 8.79 h. For the same compound, the AUC in data set [3] (intravenous injection 2 mg/kg, read-out: Exposure of AUC) is 3.85 µM·h. Besides, in data set [3] (intravenous injection 2 mg/kg, read-out: Vdss), the Vd turned out to be 7.98 L/kg. Further, in data set [3] (oral 10 mg/kg), the bioavailability stood at 53.5% and the AUC(0-t) was found to be 10.3 µM·h. Besides, in data set [3] (oral 50 mg/kg), the bioavailability amounted to 36.6% and the AUC(0-t) is 35.3 µM·h.

For the origin of these results see patent publication US11530196B2, “Pyrimidine compound acting on EGFR and ERBB2” (CHINA RESOURCES PHARMACEUTICAL HOLDINGS COMPANY LIMITED, priority 2019, dated 2022).
